Drawing on ChEMBL document CHEMBL6074668 (J Med Chem, 2024), this text covers EC50 and Ki for one compound.

SMILES strings stand for the structures.

The target in assay [1] is Mu-type opioid receptor (Homo sapiens, UniProt P35372). Description: Agonist activity at human mu opioid receptor expressed in CHO-K1 cells assessed as inhibition of forskolin-stimulated cAMP accumulation by HitHunter assay based luminescence analysis. The format is functional, cell-based.
The target of assay [2] is Kappa-type opioid receptor (Homo sapiens, UniProt P41145). In words: Displacement of [3H]U69593 from kappa opioid receptor (unknown origin) expressed in human U2OS cell membrane by competitive radioligand binding assay. The format is cell membranes. On the technique in general: Loss of bound radioactivity is the signal in a displacement assay; it reports binding, not function.

Assay [3] deals with 5-hydroxytryptamine receptor 7 (Homo sapiens, UniProt P34969). In words: Binding affinity to 5HT7A receptor (unknown origin) by radioligand displacement assay.
In assay [4] the target is T1, Alpha-1A adrenergic receptor (Homo sapiens, UniProt P35348).
T1 sequence (P35348 whole entry): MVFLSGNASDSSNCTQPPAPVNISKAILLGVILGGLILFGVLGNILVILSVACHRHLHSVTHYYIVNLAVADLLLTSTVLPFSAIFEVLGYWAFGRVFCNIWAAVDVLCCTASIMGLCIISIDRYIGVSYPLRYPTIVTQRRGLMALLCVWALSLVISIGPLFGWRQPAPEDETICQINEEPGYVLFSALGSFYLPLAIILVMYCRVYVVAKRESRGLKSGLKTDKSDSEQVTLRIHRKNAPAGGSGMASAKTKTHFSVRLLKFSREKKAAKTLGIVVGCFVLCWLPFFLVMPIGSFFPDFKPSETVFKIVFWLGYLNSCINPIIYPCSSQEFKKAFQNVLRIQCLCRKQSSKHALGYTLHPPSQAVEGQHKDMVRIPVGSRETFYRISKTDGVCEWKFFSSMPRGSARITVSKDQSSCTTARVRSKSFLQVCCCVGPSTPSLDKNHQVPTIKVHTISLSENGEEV
Description: Binding affinity to alpha1A adrenergic receptor (unknown origin) by radioligand displacement assay.

For assay [5], the target named is T2, Alpha-2A adrenergic receptor (Homo sapiens, UniProt P08913).
T2 sequence (P08913 whole entry): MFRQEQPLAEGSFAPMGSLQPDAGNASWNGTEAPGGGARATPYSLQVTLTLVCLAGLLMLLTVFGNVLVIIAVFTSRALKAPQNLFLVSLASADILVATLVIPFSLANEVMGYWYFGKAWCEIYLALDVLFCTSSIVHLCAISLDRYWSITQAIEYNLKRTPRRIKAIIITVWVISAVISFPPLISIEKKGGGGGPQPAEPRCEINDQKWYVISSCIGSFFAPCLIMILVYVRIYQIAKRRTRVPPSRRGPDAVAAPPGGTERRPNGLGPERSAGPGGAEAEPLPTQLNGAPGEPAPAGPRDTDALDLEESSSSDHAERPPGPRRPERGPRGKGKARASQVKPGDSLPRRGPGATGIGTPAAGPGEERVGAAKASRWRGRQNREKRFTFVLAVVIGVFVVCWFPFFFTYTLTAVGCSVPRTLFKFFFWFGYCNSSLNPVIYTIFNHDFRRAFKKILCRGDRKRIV
Description: Binding affinity to alpha2A adrenergic receptor (unknown origin) by radioligand displacement assay.

Assay [6] can be described thus: Binding affinity to Sigma2 opioid receptor (unknown origin) by radioligand displacement assay. Also noted: species or system Homo sapiens.

What is called EC50 is the midpoint of the concentration-response curve. The Ki is a dissociation constant, usually derived from enzyme kinetics or from competition with a known ligand. As to `C/C=C1/CN2CC[C@]34C(=C(C(=O)OC)[C@H]1C[C@H]23)Nc1ccc(I)cc14`, in assay [1], the concentration giving a half-maximal response (EC50) is 41 µM. Also, the Ki in assay [2] turned out to be 87 pM; in assay [3] it was 1.39 µM; in assay [4], 0.883 µM; in assay [5], 0.732 µM; in assay [6] it was 2.22 µM.
